Experimental data taken from paper PMC5138836, “Antiproliferative activities of Amaryllidaceae alkaloids from Lycoris radiata targeting DNA topoisomerase I” (Scientific Reports, 2016).
pIC50: −log10 of the molar value.

Biological target: T1, DNA topoisomerase I (Top I) (Escherichia coli, UniProt P06612)
T1 construct: gene topA
Assay: in vitro Top I inhibition assay (absorbance, plate reader); also affinity ultrafiltration HPLC-MS, EF […]
Type: biochemical

T1 sequence (P06612 whole entry): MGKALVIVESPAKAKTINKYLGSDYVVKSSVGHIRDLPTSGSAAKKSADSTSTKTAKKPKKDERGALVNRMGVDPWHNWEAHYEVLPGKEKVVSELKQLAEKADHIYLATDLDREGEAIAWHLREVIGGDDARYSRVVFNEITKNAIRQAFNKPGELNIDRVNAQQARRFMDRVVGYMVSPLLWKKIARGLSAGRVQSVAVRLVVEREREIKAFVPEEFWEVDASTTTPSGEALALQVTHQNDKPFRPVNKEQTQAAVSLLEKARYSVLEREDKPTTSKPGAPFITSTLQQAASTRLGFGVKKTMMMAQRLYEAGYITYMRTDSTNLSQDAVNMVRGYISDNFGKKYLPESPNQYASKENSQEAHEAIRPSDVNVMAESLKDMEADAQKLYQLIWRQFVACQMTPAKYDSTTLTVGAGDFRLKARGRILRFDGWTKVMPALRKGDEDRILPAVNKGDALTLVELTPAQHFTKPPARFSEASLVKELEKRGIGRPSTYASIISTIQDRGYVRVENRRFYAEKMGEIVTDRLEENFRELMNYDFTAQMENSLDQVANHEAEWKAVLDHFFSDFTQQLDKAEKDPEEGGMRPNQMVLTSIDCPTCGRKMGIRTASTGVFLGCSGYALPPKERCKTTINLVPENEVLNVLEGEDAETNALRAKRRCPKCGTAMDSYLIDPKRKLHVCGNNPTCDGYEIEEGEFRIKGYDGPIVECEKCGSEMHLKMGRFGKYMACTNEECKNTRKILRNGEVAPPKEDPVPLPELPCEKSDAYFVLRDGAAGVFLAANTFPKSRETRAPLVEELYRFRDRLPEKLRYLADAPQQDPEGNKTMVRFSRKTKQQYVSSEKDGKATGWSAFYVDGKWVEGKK

Question: `CN1CCC2=C[C@H](O)[C@H]3OC(=O)c4cc5c(cc4[C@H]3[C@@H]21)OCO5` [compound 5, hippeastrine] was tested. Which pIC50 did it give?
Answer: 4.64
